Test results from ChEMBL document CHEMBL5465560, “Selectivity Literature for EUbOPEN Chemogenomic Library” (2024).
One block for each compound: values may come before it.

Columns and labels:
[1] = target: T1, Serine/threonine-protein kinase LATS1 (Homo sapiens) (UniProt O95835); experiment: Selectivity interaction (ActivX KiNativ screen (kinase selectivity in THP-1 cell lysates)) EUB0000639a LATS1; format: subcellular; conditions: lysate
T1 sequence (whole entry): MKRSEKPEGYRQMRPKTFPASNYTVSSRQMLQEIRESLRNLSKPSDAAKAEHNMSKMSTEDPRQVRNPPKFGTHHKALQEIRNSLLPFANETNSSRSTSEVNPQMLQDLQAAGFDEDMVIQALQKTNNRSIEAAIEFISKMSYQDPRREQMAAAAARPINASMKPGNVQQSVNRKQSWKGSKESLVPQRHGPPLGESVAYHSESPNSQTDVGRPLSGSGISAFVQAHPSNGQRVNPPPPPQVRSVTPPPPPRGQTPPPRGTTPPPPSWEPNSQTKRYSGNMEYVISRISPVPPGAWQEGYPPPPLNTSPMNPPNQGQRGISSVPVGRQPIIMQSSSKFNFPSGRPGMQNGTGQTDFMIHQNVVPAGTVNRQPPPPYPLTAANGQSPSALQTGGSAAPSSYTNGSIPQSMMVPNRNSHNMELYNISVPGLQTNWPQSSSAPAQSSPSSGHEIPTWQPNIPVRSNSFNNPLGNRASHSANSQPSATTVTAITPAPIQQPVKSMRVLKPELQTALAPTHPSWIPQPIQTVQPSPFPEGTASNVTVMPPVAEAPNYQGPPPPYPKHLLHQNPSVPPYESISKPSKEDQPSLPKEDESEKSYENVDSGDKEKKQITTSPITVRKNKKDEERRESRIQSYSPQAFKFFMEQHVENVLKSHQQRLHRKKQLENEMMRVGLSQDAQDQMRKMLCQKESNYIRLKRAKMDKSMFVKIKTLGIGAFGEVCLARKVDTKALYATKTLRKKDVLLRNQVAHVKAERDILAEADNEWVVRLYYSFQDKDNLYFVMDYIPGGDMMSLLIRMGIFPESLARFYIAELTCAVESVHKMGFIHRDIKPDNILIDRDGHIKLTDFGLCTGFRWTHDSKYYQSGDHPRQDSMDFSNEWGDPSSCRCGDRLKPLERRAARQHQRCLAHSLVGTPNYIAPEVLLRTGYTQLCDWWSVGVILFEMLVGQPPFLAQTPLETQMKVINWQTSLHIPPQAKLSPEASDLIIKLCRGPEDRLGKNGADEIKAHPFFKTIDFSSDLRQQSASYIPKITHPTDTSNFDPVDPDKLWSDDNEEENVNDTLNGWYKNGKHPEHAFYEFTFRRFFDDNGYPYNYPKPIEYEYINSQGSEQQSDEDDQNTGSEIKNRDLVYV

[2] = target: T2, Serine/threonine-protein kinase BRSK2 (Homo sapiens) (UniProt Q8IWQ3); experiment: Selectivity interaction (KinomeScan (DiscoverX)) EUB0000655a BRSK2; conditions: at 10 µM
T2 sequence (whole entry): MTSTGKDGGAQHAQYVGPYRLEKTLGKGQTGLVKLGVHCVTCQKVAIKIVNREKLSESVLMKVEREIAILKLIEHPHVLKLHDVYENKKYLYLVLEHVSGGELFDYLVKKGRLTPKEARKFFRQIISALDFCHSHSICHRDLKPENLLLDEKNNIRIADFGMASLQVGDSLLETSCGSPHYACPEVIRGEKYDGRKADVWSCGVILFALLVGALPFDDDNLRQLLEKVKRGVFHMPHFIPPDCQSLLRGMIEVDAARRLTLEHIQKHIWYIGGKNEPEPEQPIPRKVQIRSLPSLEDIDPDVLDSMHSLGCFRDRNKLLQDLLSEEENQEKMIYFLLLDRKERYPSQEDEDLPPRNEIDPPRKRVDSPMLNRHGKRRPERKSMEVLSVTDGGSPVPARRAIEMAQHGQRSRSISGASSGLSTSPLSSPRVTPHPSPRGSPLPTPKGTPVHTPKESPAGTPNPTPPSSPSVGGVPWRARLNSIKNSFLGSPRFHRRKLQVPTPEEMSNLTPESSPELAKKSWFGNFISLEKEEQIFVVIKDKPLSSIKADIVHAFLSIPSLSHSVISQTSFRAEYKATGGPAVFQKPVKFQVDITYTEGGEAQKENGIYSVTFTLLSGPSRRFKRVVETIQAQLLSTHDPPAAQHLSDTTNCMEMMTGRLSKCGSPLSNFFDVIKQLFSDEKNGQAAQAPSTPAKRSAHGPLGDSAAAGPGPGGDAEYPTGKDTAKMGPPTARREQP

[3] = target: T3, Serine/threonine-protein kinase Nek8 (Homo sapiens) (UniProt Q86SG6); experiment: Selectivity interaction (Kinase panel (KiNativ target engagement assay in Jurkat cells)) EUB0001635a NEK8; format: cell-based; conditions: at 1 µM
T3 sequence (whole entry): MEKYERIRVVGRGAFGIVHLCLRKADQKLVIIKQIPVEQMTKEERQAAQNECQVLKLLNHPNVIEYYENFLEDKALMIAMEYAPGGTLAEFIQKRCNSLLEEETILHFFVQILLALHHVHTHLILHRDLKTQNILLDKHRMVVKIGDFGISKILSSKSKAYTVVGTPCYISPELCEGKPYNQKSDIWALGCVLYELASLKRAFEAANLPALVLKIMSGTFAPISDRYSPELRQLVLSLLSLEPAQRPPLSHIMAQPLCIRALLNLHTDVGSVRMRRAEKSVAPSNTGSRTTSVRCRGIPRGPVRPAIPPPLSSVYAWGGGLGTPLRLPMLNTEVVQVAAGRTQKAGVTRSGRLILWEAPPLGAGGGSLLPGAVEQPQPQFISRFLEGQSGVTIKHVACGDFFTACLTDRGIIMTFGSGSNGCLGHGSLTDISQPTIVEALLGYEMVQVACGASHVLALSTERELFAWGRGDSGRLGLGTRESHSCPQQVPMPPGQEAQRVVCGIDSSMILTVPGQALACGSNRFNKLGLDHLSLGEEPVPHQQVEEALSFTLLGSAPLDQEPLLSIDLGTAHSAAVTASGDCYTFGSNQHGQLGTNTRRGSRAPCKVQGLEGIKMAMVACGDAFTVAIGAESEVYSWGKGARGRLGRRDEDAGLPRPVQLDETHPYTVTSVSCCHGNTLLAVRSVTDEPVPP

[4] = target: Glycogen synthase kinase-3 beta (Homo sapiens, UniProt P49841); experiment: Selectivity interaction (KinomeScan (DiscoverX)) EUB0000092b GSK3B; conditions: at 10 µM
Sequence of Glycogen synthase kinase-3 beta (P49841 whole entry, looked up): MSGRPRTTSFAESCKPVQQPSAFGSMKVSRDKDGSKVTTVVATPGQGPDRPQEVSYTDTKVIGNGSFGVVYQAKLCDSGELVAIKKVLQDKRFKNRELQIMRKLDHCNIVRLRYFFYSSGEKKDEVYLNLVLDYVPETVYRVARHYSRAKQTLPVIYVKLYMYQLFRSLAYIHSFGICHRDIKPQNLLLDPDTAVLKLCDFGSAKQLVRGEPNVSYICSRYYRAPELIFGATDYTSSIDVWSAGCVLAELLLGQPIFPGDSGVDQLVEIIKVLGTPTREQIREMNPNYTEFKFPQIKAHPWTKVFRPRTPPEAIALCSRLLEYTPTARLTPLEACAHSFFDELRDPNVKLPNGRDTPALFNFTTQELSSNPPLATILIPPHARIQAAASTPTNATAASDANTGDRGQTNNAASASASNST

- % of inhibition ([1]; at 0.01 µM): -5.5%
- % of inhibition ([1]; at 0.04 µM): -23.7%
- % of inhibition ([1]; at 0.2 µM): -87.3%
- % of inhibition ([1]; at 1 µM): -76.3%
- % of inhibition ([1]; at 5 µM): -29.4%
SMILES: CC[C@@H]1[C@H](F)C(=O)N[C@@H]1COc1nccc2cc(C(N)=O)c(OC)cc12 [ZIMLOVISERTIB]

SMILES: CN(C)CCOc1ccc(-c2nc(-c3ccncc3)c(-c3ccc4c(c3)CC/C4=N\O)[nH]2)cc1
- % of control [2]: 88%

SMILES: C=CC(=O)Nc1ccc(C(=O)Nc2[nH]nc3c2CN(C(=O)N[C@H](CN(C)C)c2ccccc2)C3(C)C)cc1
- % of engagement [3]: -10.5%

SMILES: CCC(=O)N1CCN(c2ccc(-n3c(=O)ccc4cnc5ccc(-c6cnc7ccccc7c6)cc5c43)cc2C(F)(F)F)CC1
- % of control [4]: 100%
